Patent US10564093B2, “Single injection competition assays” (Molecular Devices, LLC, priority 2015, dated 2020)

System: Carbonic anhydrase II enzyme
Test: SPR single injection competitive binding analysis of CBS in the presence of Furosemide
Protocol: The binding interaction analysis was carried out using a SPR cell having a sensing region wherein the bound ligand is Carbonic anhydrase II enzyme immobilized on the surface of the biosensor via amine coupling to ˜6500 RU. […] According to the method described above, the dispersion gradient was prepared by initially aspirating, pulling, the Furosemide into the sample holding line followed by pulling the buffer into the sample holding line. […] The dispersion gradient of CBS was prepared using 200 μl of a 2 μM of CBS and 100 μl of buffer. The dispersion gradient of CBS in buffer was prepared by initially aspirating the CBS into the sample holding line followed by pulling the buffer into the sample holding line. The resulting dispersion gradient was immediately injected at a flow rate of 50 μl/min through the SPR sensing region containing the bound ligand.
FIGS. 16-18 will be referenced with regard to the method of determining binding competitive analysis. FIG. 16 reflects the relative concentrations of analyte when performing a binding competition analysis.
In contrast, the relative concentration of CBS will increase as a dispersion gradient during the competitive analysis.
The binding response curves of FIG. 17 were prepared by injecting two samples. […]

binding of CBS to the ligand in the presence of Furosemide (subtracted binding interaction curves, FIG. 18) (immobilized Carbonic anhydrase II, constant Furosemide, CBS dispersion gradient, Furosemide control curve subtracted): no binding
SMILES: NS(=O)(=O)c1ccc(C(=O)O)cc1 [CBS, 4-carboxy-benzenesulfonamide]
qualitative analysis of binding interaction curve of CBS/Furosemide dispersion gradient (FIG. 17, lines 1 and 3) (no control subtraction, curve remains substantially steady state): does not compete and does not contribute to the binding interaction
